Measurements as given in ChEMBL document CHEMBL1155122, “Design and optimization of aniline-substituted tetrahydroquinoline C5a receptor antagonists” (Bioorg Med Chem Lett, 2008).

Tests used:
[1] = biological target: T1, C5a anaphylatoxin chemotactic receptor 1 (Homo sapiens, UniProt P21730); assay: Antagonist activity at human recombinant C5a receptor in U937 cells assessed as inhibition of C5a-induced calcium mobilization by FLIPR assay; type: functional, cell-based, U-937
T1 sequence (P21730 whole entry): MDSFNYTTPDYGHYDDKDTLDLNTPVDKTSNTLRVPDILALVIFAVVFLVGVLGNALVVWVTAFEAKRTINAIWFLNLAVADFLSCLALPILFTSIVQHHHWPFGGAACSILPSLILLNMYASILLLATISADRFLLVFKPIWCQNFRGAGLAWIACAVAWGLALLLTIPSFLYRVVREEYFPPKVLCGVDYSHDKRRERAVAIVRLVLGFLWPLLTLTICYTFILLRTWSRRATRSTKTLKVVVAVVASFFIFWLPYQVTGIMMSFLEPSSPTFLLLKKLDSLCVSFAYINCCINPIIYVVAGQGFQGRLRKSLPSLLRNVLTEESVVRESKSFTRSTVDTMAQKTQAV

[2] = biological target: T1, C5a anaphylatoxin chemotactic receptor 1; assay: Displacement of [125I]C5a from human recombinant C5a receptor in U937 cells; type: cell-based, U-937
[3] = Oral bioavailability in rat at 10 mg/kg; type: ADME, organism-based; settings: in vivo
Rattus norvegicus [4] = assay: AUC in rat at 10 mg/kg, po; type: ADME, organism-based, Plasma; set-up: dose 10 mg/kg, route oral; settings: in vivo
[5] = Clearance in rat at 2 mg/kg, iv; type: ADME, organism-based; set-up: dose 2 mg/kg, route intravenous; settings: in vivo
[6] = Half life in rat at 10 mg/kg, po; type: ADME, organism-based; set-up: dose 10 mg/kg, route oral; settings: in vivo
[7] = Half life in rat at 2 mg/kg, iv; type: ADME, organism-based; set-up: dose 2 mg/kg, route intravenous; settings: in vivo
Rattus norvegicus [8] = assay: Cmax in rat at 10 mg/kg, po; type: ADME, organism-based; set-up: dose 10 mg/kg, route oral; settings: in vivo
[9] = Volume of distribution at steady state in rat at 2 mg/kg, iv; type: ADME, organism-based; set-up: dose 2 mg/kg, route intravenous; settings: in vivo, read-out: Vdss

Compound | IC50 [1] [nM] | other results
CCc1cccc(CC)c1-c1cc(OC)c2c(n1)CCCC2Nc1cc(F)ccc1C (stereo unspecified) | 1400 | 
CCc1cccc(CC)c1-c1cc(OC)c2c(n1)CCCC2Nc1cc(-c2ccccc2)ccc1C (stereo unspecified) | 2500 | 
CCc1cccc(CC)c1-c1cc(OC)c2c(n1)CCCC2Nc1cc(OC)ccc1-c1ccccc1 (stereo unspecified) | > 10000 | 
CCc1cccc(CC)c1-c1cc(OC)c2c(n1)CCCC2Nc1cc(O)ccc1C (stereo unspecified) | > 10000 | 
CCc1cccc(CC)c1-c1cc(OC)c2c(n1)CCCC2Nc1ccc(OC)cc1C (stereo unspecified) | 2400 | 
CCc1cccc(CC)c1-c1cc(OC)c2c(n1)CCCC2Nc1ccccc1CCO (stereo unspecified) |  | Ki [2]: 21 nM
CCc1cccc(CC)c1-c1cc(OC)c2c(n1)CCCC2Nc1ccccc1C(C)=O (stereo unspecified) | > 10000 | 
CCc1cccc(CC)c1-c1cc(OC)c2c(n1)CCCC2Nc1ccccc1C(=O)OC (stereo unspecified) | > 10000 | 
CCc1cccc(CC)c1-c1cc(OC)c2c(n1)CCCC2Nc1cc(OC)ccc1C (stereo unspecified) | 140 | bioavailability [3]: 21%; AUC (Rattus norvegicus [4]): 700 ng·h/mL; clearance [5]: 21 mL/min/kg; half-life [6]: 5.3 h; half-life [7]: 6.3 h; Cmax (Rattus norvegicus [8]): 290 ng/mL; Vd [9]: 4.5 L/kg
CCc1cccc(CC)c1-c1cc(OC)c2c(n1)CCCC2Nc1ccccc1CO (stereo unspecified) | 120 | 
CCc1cccc(CC)c1-c1cc(OC)c2c(n1)CCCC2Nc1cc(C)ccc1C (stereo unspecified) | 430 | 
CCc1cccc(CC)c1-c1cc(OC)c2c(n1)CCCC2Nc1cc(CO)ccc1C (stereo unspecified) | > 10000 | 
CCc1cccc(CC)c1-c1cc(OC)c2c(n1)CCCC2Nc1ccccc1C(N)=O (stereo unspecified) | > 10000 | 
CCc1cccc(CC)c1-c1cc(OC(C)C)c2c(n1)CCCC2Nc1ccccc1CCO (racemic) | 7 | 
CCc1cccc(CC)c1-c1cc(OC)c2c(n1)CCCC2N(C)c1cc(OC)ccc1OC (racemic) | 2600 | 
COc1cc(-c2c(C)cccc2C)nc2c1C(N(C)c1c(C)cccc1C)CCC2 (racemic) | > 10000 | 
COc1cccc(N(C)C2CCCc3nc(-c4c(C)cccc4C)cc(OC)c32)c1C (racemic) | > 10000 | 
CCc1cccc(CC)c1-c1cc(OC)c2c(n1)CCCC2N(C)c1cc(-c2ccccc2)ccc1C (racemic) | > 10000 | 
CCc1cccc(CC)c1-c1cc(OC)c2c(n1)CCCC2N(C)c1cc(Cl)ccc1C (racemic) | 2600 | 
